Values of other authors as cited in patent US20130029422A1, “Composite Substrate for 3D Cell Culture” (priority 2011, published 2013).

Conditions: during culture of breast cancer cells

Substance: estrogen
- extraction from cell culture medium by PDMS-based cell culture articles: extract estrogen from cell culture medium
